Reference: paper PMC7870626, “Neurotoxicity and underlying cellular changes of 21 mitochondrial respiratory chain inhibitors” (Archives of Toxicology, 2021)
Like-named read-outs stand apart in the source and are kept apart here.

Tests used:
[1] = tested on: LUHMES cells; type: cell-based, human; conditions: 24 h, vs 0.1% DMSO; for log2FoldChange AARS: gene AARS; for log2FoldChange AASDHPPT: gene AASDHPPT; for log2FoldChange AATF: gene AATF; for log2FoldChange ABCA1: gene ABCA1; for log2FoldChange ABCA6: gene ABCA6
Experimental: Cells were cultured and treated as described above for the NeuriTox assay. On d3, after 24 h treatment, culture medium was replaced by 33 µl/well 1 × Biospyder lysis buffer. After 15 min at room temperature, plates were sealed and frozen at -80 °C to complete lysis. Samples were analyzed at Bioclavis (Glasgow) using the TempO-Seq technique and the EU-ToxRisk v2.0 gene probe panel covering ca. 3000 genes (Yeakley et al. [2017]). All genes are listed in the supplementary excel file (containing also all gene regulations). Briefly, a 50 bp fragment of the target gene was amplified. The amplification step also introduced sample-specific barcodes. This allowed pooling of all samples and standard next-generation sequencing of the ensemble. Afterward, adapters were used to allocate the sequenced fragments to the correct samples. Finally, the alignment of all sequenced fragments (FASTQ files) for each sample to the collection of reference 50 bp oligonucleotides was performed for the quantification of reads per gene, also known as the read count values. In a pre-filtering step, samples with a total count < 0.2 million and genes with an average count < 1.5 were removed.
To correct for both read depth and RNA composition, the DESeq2′s median of ratios normalization was applied. The analysis of differentially expressed genes (DEG) of each treatment against the control group was done by the Wald test implemented in DESeq2/R (Love et al. [2014]), including an FDR correction for p-adjusted ≤ 0.05. […] A curve was fit through these concentration–response data to obtain EC10DEG. For comparability, all DEG data were normalized to a positive control. […] The EC10DEG was calculated using an established online open access BMC calculator (BMCeasy) (Krebs et al. [2020]).

[2] = tested on: HepG2 cells; assay: HepG2-based respirometry, total cell respiration (earlier study); conditions: NeuriTox neurite EC25 relative to cell respiration EC25; respirometric data from HepG2-based assays ref van der Stel et al. 2020
[3] = tested on: SH-SY5Y cells; assay: Mitochondrial membrane potential (rhodamine 123), KE2 assay; type: cell-based, human; conditions: for Ratios of EC25 KE4/KE2 MMP: NeuriTox neurite EC25 relative to SH-SY5Y MMP EC25
Experimental: Cells were plated at a cell density of 29,500 cells/cm^2 and handled as described above for the neurite SH-SY5Y degeneration. On d6 of differentiation, 50% of the medium was replaced by differentiation medium containing 2 µM Rhodamine 123 (ThermoFisher). After 45 min of preloading at 37 °C with 5% CO2 in darkness, the Rhodamine 123 solution was completely removed and cells were carefully washed once with 200 µl DMEM:F12. Subsequently, 50 µl differentiation medium per well were added followed by the addition of 50 µl/well of test compounds in medium. After 24 h of exposure to the test compounds, the nuclei were stained for 30 min with 20 µL of a solution containing 20 µM Hoechst 33342, and the images were then acquired with a 10 × objective lens using the ImageXpress® Micro (Molecular Devices) high content microplate imager. Nuclei were evaluated in the DAPI channel (excitation 377 ± 50 nm, emission 447 ± 60 nm), whereas Rhodamine 123 fluorescence was detected in the FITC channel (excitation 475 ± 34 nm, emission 536 ± 40 nm). Analysis of the Hoechst 33,342 and Rhodamine 123 fluorescence was performed using the MetaXpress® Software (Molecular Devices) with the Transfluor HT plug-in and the parameters nuclei (for Hoechst-33342) and integrated granule intensity (for Rhodamine 123). Mitochondrial membrane potential (MMP) was quantified as the total fluorescence intensity of Rhodamine 123 in relation to the number of Hoechst-stained nuclei.

[4] = tested on: LUHMES cells; assay: NeuriTox test: neurite area and viability, 24 h; type: cell-based, human; conditions: for EC25: Homo sapiens
Experimental: (§1) The NeuriTox test was performed as previously described (Delp et al. [2018b]; Krug et al. [2013a]; Stiegler et al. [2011]). Briefly, cells differentiated for 48 h were re-seeded into 96-well plates at a density of 100,000 cells/cm^2 in DM without cAMP and GDNF, and treated 1 h after seeding for 24 h. Subsequently, multiple endpoints were determined, e.g., neurite outgrowth (i.e., NeuriTox test), resazurin reduction, intracellular ATP content, gene expression levels from TempO-Seq analysis, and proteasomal activity. For the 120 h exposure scenario, LUHMES cells were differentiated for another 3 days after reseeding before they were treated on day 5 (d5) and d7 by a half medium exchange. Endpoints were determined on d10 of differentiation.
Image acquisition and analysis was performed as described previously (Krug et al. [2013a]; Schildknecht et al. [2013]; Stiegler et al. [2011]). In brief, cells were live-stained with 1 µg/ml Hoechst H-33342 and 1 µM calcein-AM and image acquisition was done by an automated high content imager (Cellomics, Waltham, MA, USA). Cell viability was determined as ratio of live cells (cell bodies being Calcein- and Hoechst-positive) relative to the total amount of cells (Hoechst-positive cell bodies). Neurite area was calculated by subtracting the somatic area (Hoechst-positive area plus surrounding) from the calcein-positive area.

[5] = tested on: MRC complex (cI, cII or cIII); assay: HepG2-based MRC complex assay in permeabilized cells (earlier study); type: cell-based; conditions: NeuriTox neurite EC25 relative to complex assay EC25 in permeabilized cells; respirometric data from HepG2-based assays ref van der Stel et al. 2020
[6] = tested on: proteasome; assay: Proteasomal activity (KE3 assay) in LUHMES cells; type: cell-based, human; conditions: NeuriTox neurite EC25 relative to proteasomal activity EC25, LUHMES
Experimental: Activity of the proteasome was quantified as described in (Gutbier et al. [2018b]). Briefly, after exposure, culture medium was replaced by assay buffer containing a cell-permeable proteasomal substrate (MeOSuc-Gly-Leu-Phe-AMC, 25 µM (Bachem, Bubendorf, Switzerland) in HBSS). Its AMC-fluorescence (ex: 360 nm, em: 465 nm) increases with proteasomal activity and was monitored for 90 min. Background-corrected data were used for further analysis.

[7] = tested on: LUHMES cells; assay: Intracellular ATP content after NeuriTox exposure; type: cell-based; conditions: Homo sapiens; NeuriTox exposure scheme, 24 h; read-out: LUHMES 24 h EC25 ATP (converted)
Experimental: as §1
Plates from the NeuriTox test were further used after imaging for determination of alternative endpoints. Intracellular ATP was determined as described earlier (Delp et al. [2019]). In brief, CellTiterGlo 2.0 assay mix (Promega) containing luciferase was added after imaging, and luminescence was recorded. For the determination of resazurin reduction, a 10 × resazurin stock solution was added after imaging to the medium (final resazurin concentration 2 µg/ml) (Delp et al. [2018a]). After 60 min incubation, resazurin fluorescence was recorded (ex: 530 nm, em: 590 nm). Background-corrected data was used for further analysis.

[8] = tested on: U2OS cells; assay: cells; type: cell-based; conditions: Homo sapiens; U2OS osteosarcoma cells, 24 h, luminescence of constitutively expressed luciferase; read-out: Cytotox EC25 U2OS (converted)
Experimental: A cell suspension of 100,000 cells/ml was prepared in assay medium, and white 384-well plates were filled with 30 µl/well cell suspension. Twenty-four hours after seeding, a dilution series of test compound, as well as positive and negative controls, were added to the cells. After 24 h exposure, the medium was removed, and 10 µl of Triton X-100 lysis buffer was added to each well. The luminescent signal was determined in a luminometer by injecting BDS Illuminate Mix and measuring the light emission. The Cytotox CALUX cell line constitutively expresses a high level of luciferase protein; the light emission is therefore proportional to the cell number of live cells, and its decrease can be used as measure of cytotoxicity. The light emission generated by cells exposed to vehicle control was set to 100%, and the luminescence of cells exposed to the positive control toxicant tributyltin acetate [100 µM] was set to 0%. The light output of the cells exposed to different concentrations of test compounds was scaled accordingly.

[9] = NeuriTox test, neurite outgrowth impairment, LUHMES 24 h
[10] = NeuriTox exposure scheme, 24 h, read-out: LUHMES 24 h EC25 NA (neurite area) (converted)
[11] = NeuriTox exposure scheme, 24 h, read-out: LUHMES 24 h EC25 V (viability) (converted)

SMILES | Ratios of EC25 KE4/KE1 total respiration [2] | Ratios of EC25 KE4/KE2 MMP [3] | Ratios of EC25 KE4/KE1 complex assay [5] | EC25 [7] | EC25 [4, 10] | EC25 [4, 11] | EC25 [8] | also measured
CO/C=C(/C(=O)OC)c1ccccc1Oc1cc(Oc2ccccc2C#N)ncn1 [Azoxystrobin] | 10.0 | 9.8 | 4.0 | – | – | – | – | log2FoldChange AARS ([1]; 0.10 µM): -0.16 log2; log2FoldChange AASDHPPT ([1]; 0.10 µM): 0.0857 log2; log2FoldChange AATF ([1]; 0.10 µM): -0.0134 log2; log2FoldChange ABCA1 ([1]; 0.10 µM): -0.16 log2; log2FoldChange ABCA6 ([1]; 0.10 µM): -1.97 log2; EC25 KE4 (AO) Neurite toxicity [4, 9]: 4.5 -log[M]; Ratios of EC25 KE4/KE3 proteasomal [6]: 0.9
CSC1=N[C@@](C)(c2ccccc2)C(=O)N1Nc1ccccc1 [Fenamidone] | ≥ 10 | – | – | > 50.1 µM | > 50.1 µM | > 50.1 µM | > 100 µM | –
CC(C)(C)c1ccc(CCOc2ncnc3ccccc23)cc1 [Fenazaquin] | 40–60 | – | ≥ 800 | 10 µM | 10 µM | 15.8 µM | > 100 µM | –
Cc1occc1C(=O)Nc1ccccc1 [Fenfuram] | – | – | – | > 100 µM | > 100 µM | > 100 µM | > 100 µM | –
CC(C)Oc1cccc(NC(=O)c2ccccc2C(F)(F)F)c1 [Flutolanil] | – | – | – | 79.4 µM | 79.4 µM | > 100 µM | > 100 µM | –
CO/N=C(/C(=O)OC)c1ccccc1COc1ccccc1C [Kresoxim-methyl] | ≥ 10 | – | – | 31.6 µM | 50.1 µM | 39.8 µM | > 100 µM | –
CO/C=C(/C(=O)OC)c1ccccc1COc1cccc(C(F)(F)F)n1 [Picoxystrobin] | 63 | 4.7 | 31.6 | – | – | – | – | log2FoldChange AARS ([1]; 0.10 µM): -0.76 log2; log2FoldChange AASDHPPT ([1]; 0.10 µM): 1.04 log2; log2FoldChange AATF ([1]; 0.10 µM): -0.34 log2; log2FoldChange ABCA1 ([1]; 0.10 µM): -0.73 log2; log2FoldChange ABCA6 ([1]; 0.10 µM): 1.05 log2; EC25 KE4 (AO) Neurite toxicity [4, 9]: 4.4 -log[M]
CC(C)(C)c1ccc(CSc2cnn(C(C)(C)C)c(=O)c2Cl)cc1 [Pyridaben] | 40–60 | – | ≥ 800 | 79.4 µM | 63.1 µM | > 100 µM | > 100 µM | –
CCc1nn(C)c(C(=O)NCc2ccc(C(C)(C)C)cc2)c1Cl [Tebufenpyrad] | 126 | 5.6 | 1000 | 12.6 µM | 20 µM | 20 µM | > 100 µM | log2FoldChange AARS ([1]; 0.09 µM): -0.0653 log2; log2FoldChange AASDHPPT ([1]; 0.09 µM): 0.0475 log2; log2FoldChange AATF ([1]; 0.09 µM): 0.19 log2; log2FoldChange ABCA1 ([1]; 0.09 µM): -0.37 log2; log2FoldChange ABCA6 ([1]; 0.09 µM): 0.84 log2; EC25 ([3]; Homo sapiens, SH-SY5Y differentiated 6 days, treated 24 h, rhodamine-123, read-out: pEC25 MMP (concentration where MMP was reduced by 25%) (converted)): 3.16 µM; EC25 ([4]; NeuriTox test, neurite outgrowth impairment, LUHMES 24 h, read-out: EC25 KE4 (AO) Neurite toxicity (converted)): 20 µM
CO/N=C(/C(=O)OC)c1ccccc1CO/N=C(\C)c1cccc(C(F)(F)F)c1 [Trifloxistrobin] | ≥ 10 | – | – | – | – | – | – | –
